Assay results: article PMC12612973, “Inhibition of Human Amylin Aggregation: In Silico and In Vitro Studies” (ACS Omega, 2025)

Legend:
[1] = target: T1, human amylin (hIAPP) (Homo sapiens, UniProt P10997); assay: Dynamic light scattering (DLS) assay of amylin aggregation; format: biochemical; conditions: compound 10 μM, amylin 15 μM, 36 h incubation, 3 trials; read-out: DLS inhibition % (mean ± SEM)
T1 construct: purchased Bachem USA
T1 sequence (P10997 34-70 limits assumed): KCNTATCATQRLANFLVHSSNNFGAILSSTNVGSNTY
Procedure: A stock solution of amylin (1 mM) (purchased from Bachem USA), peptide sequence: […] amide (with disulfide bond between Cys2 and Cys7), was prepared in 100% hexafluoroisopropyl alcohol (HFIP) (purchased from Sigma-Aldrich) and stored at −20 °C. , Aliquots of amylin peptide were filtered through a 0.22 μm filter from the stock solution and freeze-dried. For kinetic experiments, 15 μM of amylin was prepared in 50 mM Tris-HCl buffer (pH 7.4), as investigated in previous studies by Chaari et al., , Samples of amylin were prepared in the presence or absence of inhibitors. Each compound was dissolved in DMSO and further diluted with the buffer used to solubilize the amylin. The final mixture contained 15 μM amylin, 10 μM of the test compound, 2% DMSO or 15 μM amylin, and 2% DMSO without the compound (negative control). Also 15 μM amylin, 10 μM of oleuropein aglycone and 2% DMSO was used as a positive control. The prepared solutions were incubated under physiological conditions (pH 7.4 and 37 °C) for amylin aggregation. Samples were incubated for 36 h to test for amylin aggregation, and measurements were conducted at different time points.
DLS (Zetasizer, Malvern) was used at a wavelength of 633 nm to measure the average diffusion coefficient distribution of amylin particles and the aggregation percentage. Samples were diluted 10-fold, and 50 μL was placed into a 96-well plate. The total light scattering intensity at a 90° angle was collected using a 10 s averaging acquisition time. Particle translational diffusion coefficients were calculated from autocorrelated light intensity data (usually 30–40 points) and converted to the hydrodynamic radius (R h) using the Stokes–Einstein equation. A distribution plot of intensity versus R h was calculated using the Sedfit 9.3 analysis software, and intensity-weighted mean R h values were obtained from each peak.

[2] = target: T1, human amylin (hIAPP); assay: Thioflavin T (ThT) fluorescence assay of amylin aggregation; format: biochemical; conditions: read-out: IC50 of amylin aggregation inhibition
[3] = test system: Pancreatic INS-1E cells; assay: MTT cytotoxicity assay of amylin aggregates aged with or without inhibitors; format: cell-based; conditions: for effect on INS-1E cell viability in presence of amylin: INS-1E cells cultured with the MTDLs
Procedure: In this study, we utilized Pancreatic INS-1E cells (Department of Cell Physiology and Metabolism, University Medical Center, Switzerland) due to their close physiological similarity to native β-cells, making them highly relevant to our experimental objectives. Pancreatic INS-1E cells were grown in RPMI 1640 medium, supplemented with 2 mM glutamine, 5% fetal calf serum, 10 mM HEPES (pH 7.4), 1 mM sodium pyruvate, 50 μM 2-mercaptoethanol, 100 units/mL penicillin, and 0.1 mg/mL streptomycin. The culturing environment was maintained at 37 °C, 5% CO2, pH 7.4.
The toxicity of human amylin aggregates in the presence or absence of different compounds in the presence of 2% DMSO was assessed by the 3-(4,5-dimethylthiazol-2-yl)-2,5-diphenyltetrazolium bromide (MTT) reduction assay. The cells were cultured and then seeded into 96-well plates and grown for 24 h prior to exposure to different intermediates of amylin or a mixture of amylin with the MTDLs. The final amylin concentration within the culture medium was 5 μM. Cell viability was expressed as the percentage of MTT reduction, using cells treated with the same buffer volume as a reference (100% MTT reduction). The values (averages ± S.D.) were obtained from three independent experiments.

CC(C)(C)c1cccc(CNCC(O)CNCCC(c2ccccc2)c2ccccc2)c1 (stereo not shown) [Compound 18]
inhibition at 10 µM [1]: 99.2 ± 6.5% | IC50 [2]: 3040 nM | cell viability difference versus the sample with amylin fibrils ([3]; INS-1E cells 24 h, amylin aggregates aged 36 h with 2.92 μM compound 18 or 3.31 μM compound 21): approximately 30 % points | effect on INS-1E cell viability in presence of amylin [3]: retained cell viability

CC(C)(C)c1cccc(CNCC(O)CCNCCC(c2ccccc2)c2ccccc2)c1 (stereo not shown) [Compound 22]
inhibition at 10 µM [1]: 99.2 ± 6.8% | IC50 [2]: 2710 nM | cell viability difference versus oleuropein aglycone ([3]; INS-1E cells 24 h, amylin aggregates aged 36 h with compound): around 8 % points | cell viability (MTT reduction) ([3]; INS-1E cells 24 h with amylin aggregates aged 36 h in presence of compound (2.61 μM of compound 22)): ~93% | effect on INS-1E cell viability in presence of amylin [3]: retained cell viability | cell viability higher than that of the control ([3]; cytotoxicity assay, discussion statement): ~40%
